Source: patent US20180133212A1, “COMBINATION OF A BCL-2 INHIBITOR AND A BROMODOMAIN INHIBITOR FOR TREATING CANCER” (Gilead Sciences, Inc., priority 2016, published 2018)
Where “and” joins values, the source holds several entries; their conditions need not be identical. Identical values can stand only once. Like-named read-outs stand apart in the source and are kept apart here. Blank lines part the entries; values can stand above or below the compound they belong to.

Key:
Myc protein = test: Reduction of Myc protein expression by Compound A; type: cell-based, human; conditions: subset of cell lines of FIG. 1, dose-dependent
DLBCL cell lines = test: Single agent cell growth assessment (Cell Titer Glo); type: cell-based; conditions: Homo sapiens, 96 h, CTG, three or four days
Procedure: Compound A was serially diluted by three-fold in 100% DMSO in a 96 well plate format in duplicate dose curves to achieve a dose range of 10 mM to […] as a 1000× stock. Serially-diluted 1000× Compound A was then further diluted 1:100 in RPMI-1640 without additives to generate a 10× stock and finally diluted 1:10 into assay plate wells containing 100 μL of cells. The final concentration of DMSO was 0.1% in 111 μL of final volume in the assay wells and the dose range of Compound A was 10 μM to 0.5 nM. […] Cell viability was assessed using Cell Titer Glo (CTG, Promega, Madison, Wis.) following the manufacturer's protocol. Luminescence was measured on an EnSpire Multimode Plate Reader (Perkin Elmer, Waltham, Mass., Model 2300-001M).
A replicate assay plate was created at study initiation, processed immediately for cell viability by CTG, and these values represented 0% growth (day 0). […] Curve fittings were applied with a four parameter variable slope model and the following three calculations were determined using the curve fits. […]
(§1) The activity of Compound A to induce apoptosis or inhibit cell growth was assessed across a panel of DLBCL cell lines. DLBCL cell lines were subjected to a ten point dose response of Compound A (range 0.5 nM-10,000 nM, 3× dilution series) and assessed for cell growth inhibition by CTG or apoptosis by AnnexinV staining after three or four days.

[1] = Protein shift: free fraction in human plasma / cell culture media; type: in vitro ADME
Procedure: (§2) Clinically relevant doses of Compound A were calculated.
A set of data was selected from the synergy screening to represent clinically relevant concentration ranges of venetoclax and Compound A. The average concentration of venetoclax (Cav) was estimated at the 400 mg dose adjusted for protein binding using empirically determined free fraction in human plasma/cell culture media. Cmin and Ctrough of Compound A were similarly adjusted.

DLBCL and FL cell lines = test: Annexin V apoptosis assay (flow cytometry); type: cell-based, human
Procedure: Apoptosis induced by Compound A was measured by Annexin V staining as detected by flow cytometry. Compound A was diluted two-fold in duplicate to a starting concentration of 5 mM in 100% DMSO, and then serially diluted by three-fold in 100% DMSO in a 96 well plate format to achieve a 500× dose range of 5 mM to 0.76 μM. Serially-diluted Compound A was then further diluted 1:5 in sterile water to generate a 100× stock and finally diluted 1:100 into assay plate wells containing 200 μL of cells. The final concentration of DMSO was 0.2% in 200 μL in the assay wells and the dose range of Compound A was 10 μM to 1.5 nM. Cells were plated at 20,000-80,000 cells per well and assay plates were incubated after compound addition at 37° C. with 5% CO2 for 3 days in growth medium appropriate for each cell line. Control wells on all assay plates included 0.2% DMSO (0% apoptosis on day 3), 1 μM Velcade®, and 1 μM staurosporine (apoptosis control on day 3). Velcade® and staurosporine were used as benchmarks to ensure apoptosis could be achieved in each cell line.
After 72 to 96 hours, the cell compound mixture was transferred to a 96-well deep well conical bottom plate, centrifuged at 300×g, and cell pellets were re-suspended in DPBS. Plates were centrifuged at 300×g, supernatant was decanted, and cell pellets were re-suspended in 500 μl of pre-diluted LIVE/DEAD® Fixable Aqua Dead Cell Stain for 30 minutes at room temperature protected from light. Assay plates were centrifuged at 300×g, supernatant was decanted, and cell pellets were washed twice in 500 μL of DPBS containing 4% FBS. The washed pellets were re-suspended in 100 μL DPBS containing 4% FBS, 5 μL of Annexin V APC was added to each well, and assay plates were incubated for 30 minutes at room temperature, protected from light. Assay plates were washed twice with 500 μL of DPBS containing 4% FBS per well, and cell pellets were finally re-suspended in 250 μL of DPBS containing 4% FBS.
Flow cytometric sampling of 20,000 total events within a forward scatter and side-scatter gate (P1) per well were collected on a BD FACS Canto II instrument with DIVA software (San Jose, Calif.) using a high throughput screen auto-sampler for analysis of apoptosis. Within the P1 gate Annexin V^+/LIVE/DEAD^− and Annexin V^+/LIVE/DEAD^+ cells were digitally monitored. Single- or double-labeled cells were gated, percentages of Annexin V-positive cells in each population were recorded and combined, and data were extracted to a flow cytometry standard file (fcs). Mean percentages of Annexin V-positive cells were determined for the positive control (Velcade® and staurosporine at 1 μM) and negative wells (0.2% DMSO) to ensure the assay performed as expected for each cell line on each experimental day.
EC50 values for each compound were calculated based on log concentration of drug and percent Annexin V-positive cells using a four-parameter logistical fit equation in Prism 6.01 of the GraphPad software package. The percentage of apoptosis at EC50 was interpolated from the curve fit for each cell line. […] For an experiment to be valid, the % baseline apoptosis for a given cell line was required to be <35%.
as §1

[2] = Clinically relevant exposures (clinical plasma exposure, protein adjusted); type: in vivo
Procedure: as §2
A set of data was selected from the synergy screening to represent clinically relevant concentration ranges of venetoclax and Compound A. […] Cmin and Ctrough of Compound A were similarly adjusted.

[3] = ABT-199, 400 mg dose, Phase I NHL study; cited from earlier work

- EC50 (Myc protein; Homo sapiens): ≤ 155 nM
- EC50 (Myc protein): 284 nM
- CCM/buffer [1]: CCM/buffer 67%
- HP/buffer ([1]; human): HP/buffer 11.7
- EC50 (DLBCL and FL cell lines; Homo sapiens, one responding cell line with EC50 above 113 nM): 2500 nM
- EC50 (DLBCL and FL cell lines; individual responding cell lines, three or four days): < 113 nM and 274 nM and 881 nM
- CCM adjusted Cave ([2]; human, in vivo): 40 nM
- CCM adjusted Cmin ([2]; human, in vivo): 10 nM
- Cmax ([2]; human, in vivo, 4 mg, CCM protein adjusted CCM Cmax): 111 nM
- Cmax ([2]; human, in vivo, 4 mg, exposures Cmax): 279 ng/mL and 638 nM
- Cmax ([2]; human, in vivo, CCM adjusted Cmax): 90 nM
- Cmax ([2]; human, in vivo, protein adjusted Cmax concentration): ~113 nM
Compound: Cc1noc(C)c1-c1cc(C(O)(c2ccccn2)c2ccccn2)c2nc(C3CC3)[nH]c2c1 [Compound A]
- EC50 (DLBCL cell lines; DLBCL cell lines of FIG. 1, read-out: growth inhibition EC50 range across cell lines): 12 to 72 nM
- EC50 (DLBCL cell lines; mean over subset of cell lines of FIG. 1, read-out: growth inhibition mean EC50): 40 nM
- % apoptosis by 1 μM (DLBCL and FL cell lines; cell lines that did not undergo apoptosis (10 of 21; 8 of the FIG. 1 subset)): < 30%
- % Annexin V positive after treatment with 1 μM (DLBCL and FL cell lines; eight cell lines with EC50 <113 nM): > 30%
- lines refractory to Bcl-2 inhibition that undergo apoptosis (DLBCL and FL cell lines; of the 8 lines refractory to venetoclax (FIG. 4)): 6
- number of cell lines that underwent apoptosis (DLBCL and FL cell lines; of twenty-one DLBCL and FL cell lines, single agent): 11
- subset of DLBCL cell lines in which apoptosis was induced (DLBCL and FL cell lines; share of DLBCL cell lines): 58%

- CCM/buffer ([1]; free fraction, cell culture media): CCM/buffer 0.44%
- HP/buffer ([1]; free fraction, human plasma): HP/buffer 0.10%
- Cmax ([2]; ABT-199, 400 mg dose, cell culture media adjusted, read-out: CCM protein adjusted Cmax): 536 nM
- Cmax ([2]; human, plasma, 400 mg, ABT-199, 400 mg dose, cell culture media adjusted, read-out: CCM protein adjusted Cmax): 536 nM
- Cmax ([2]; human, plasma, 400 mg, ABT-199, 400 mg dose, read-out: exposures Cmax): 2300 nM
Compound: CC1(C)CCC(CN2CCN(c3ccc(C(=O)NS(=O)(=O)c4ccc(NCC5CCOCC5)c([N+](=O)[O-])c4)c(Oc4cnc5[nH]ccc5c4)c3)CC2)=C(c2ccc(Cl)cc2)C1 [venetoclax, reference compound]
- exposures Cmax [3]: 2 µg/mL
- exposures Cmin [3]: 0.2 µg/mL
